Results: patent publication US9695481B2, “Polynucleotides comprising a reporter sequence operatively linked to a regulatory element” (UNIVERSITEIT LEIDEN, priority 2010, dated 2017)
Entries after “also recorded” stand apart in the source; their conditions may differ. Structures can show the parent of a compound that is named as a salt. Where two headings read alike, the source gives them in different places.

Legend:
[1] = cited from earlier work
[2] = test system: Bscl2-GFP and Srxn1-GFP mES reporter cells
[3] = test system: Srxn1-GFP mES reporter cells
[4] = Genotoxicity profile; data extracted from Kirkland et al. 2008; cited from earlier work
[5] = test system: Bscl2-GFP mES reporter cells
[6] = test system: Bscl2-GFP mES reporter cells; assay: Bscl2-GFP genotoxicity reporter; details: for Bscl2-GFP reporter induction: 24 h exposure; for effect on Bscl2-GFP reporter activation by CisPt or Aph: 10 uM CisPt or 1.5 uM Aph, 24 h
[7] = test system: Srxn1-GFP mES reporter cells; assay: Srxn1-GFP oxidative stress reporter; details: for Srxn1-GFP reporter induction: 24 h exposure, flow cytometry
[8] = test system: mouse ES cell lines containing a DsRed fluorescent reporter; details: cited from earlier work
[9] = test system: mouse ES cell lines containing a DsRed fluorescent reporter
Salmonella = details: cited from earlier work
[10] = test system: ATM and ATR signaling pathways (phospho-Kap1, phospho-Chk1, phospho-p53); assay type: cell-based, mouse; details: Western blot, 24 h
Experimental: Mouse ES cells were propagated on irradiated primary mouse embryonic fibroblasts as feeders according to established protocols. […] For analysis of compounds that require metabolic activation, cells were exposed for 3 h in the presence of 1% S9 rat liver extract in 3.2 mM KCl, 0.8 mM MgCl2, 0.5 mM glucose-6-phosphate and 0.4 mM NADP.
Activation of the ATM and ATR signaling pathways in response to CisPt and Aph was determined by Western blot analysis. […] Proteins were transferred to PVDF membrane (Millipore) and detected using antibodies against phospho-Kap1 (Bethyl laboratories), phospho-Chk1 (Bethyl laboratories), phospho-p53 (Cell signaling) or Hprt (Santa Cruz) as protein loading control. Proteins were visualized using enhanced chemoluminescence (ECL).

[11] = Genotoxicity profile, data extracted from Kirkland et al. 2008
[12] = from which GFP reporter is induced

COc1cc([C@@H]2c3cc4c(cc3[C@@H](O[C@@H]3O[C@@H]5CO[C@@H](C)O[C@H]5[C@H](O)[C@H]3O)[C@H]3COC(=O)[C@H]23)OCO4)cc(OC)c1O [Etoposide]
In vivo genotoxicity [1, 11]: Pos.
Bscl2-GFP/Srxn1-GFP Prim. toxic properties [2]: Genotoxin
Srxn1-GFP reporter induction [3]: also induced by the genotoxic compounds, albeit to a lesser extent
In vitro genotoxicity [4]: Pos.

O=S(=O)([O-])[O-].[Cu+2] [Copper sulfate]
Bscl2-GFP reporter induction [5]: not induced
Bscl2-GFP/Srxn1-GFP GFP Induction [2]: Pos. (key: Pos.: considered positive when exposure to at least two different concentrations of a compound resulted in >1.5 fold induction of GFP expression)
Bscl2-GFP/Srxn1-GFP Prim. toxic properties [2]: Pro-oxidant
GFP expression in Srxn1, Bscl2 and Btg2 GFP reporter cell lines [2]: increased
Srxn1-GFP reporter induction [3]: strong, concentration-dependent increase in expression of the GFP reporter

Cc1c2ccccc2c(C)c2c1ccc1ccccc12 [dimethylbenz(a)antracene]
Bscl2-GFP reporter induction with metabolic activation ([6]; 3 h with/without S9 rat liver extract, GFP after 24 h, flow cytometry): induced expression of the Bscl2-GFP reporter only when incubated in the presence of rat S9 mix
survival of Bscl2-GFP reporter cells after S9-dependent activation ([6]; fraction of intact cells, flow cytometry): reduced survival

N.N.[Cl][Pt][Cl] [Cisplatin]
Bscl2-GFP/Srxn1-GFP GFP Induction [2]: Pos. (considered positive when exposure to at least two different concentrations of a compound resulted in >1.5 fold induction of GFP expression)
GFP expression in Srxn1, Bscl2 and Btg2 GFP reporter cell lines ([2]; BAC TransgeneOmics lines, 30 hrs exposure, flow cytometry): increased
time at which Bscl2-GFP expression became visible ([6]; 5 uM CisPt, live cell imaging): 12 h
Srxn1-GFP reporter induction, live cell imaging ([7]; 5 uM CisPt or 100 uM DEM, up to 24 h): hardly responsive
Srxn1-GFP reporter induction ([7]; listed as CisPt): also induced by the genotoxic compounds, albeit to a lesser extent; also recorded: slightly activated
Srxn1-GFP reporter induction (mRNA) ([7]; quantitative RT-PCR, 8 or 16 h): somewhat responsive
mES DsRed reporters ([8]; Hendriks et al. 2011): Pos.
DsRed reporter expression/activation [9]: clear induction of DsRed expression
mRNA expression of Ephx1-DsRed reporter and endogenous Ephx1 gene ([9]; quantitative RT-PCR, up to 24 h): transcriptionally activated

[Cl][Cd][Cl] [Cadmium Chloride]
In vivo genotoxicity [1, 11]: Pos.
Bscl2-GFP/Srxn1-GFP GFP Induction [2]: Pos. (considered positive when exposure to at least two different concentrations of a compound resulted in >1.5 fold induction of GFP expression)
Bscl2-GFP/Srxn1-GFP Prim. toxic properties [2, 12]: Pro-oxidant
Srxn1-GFP reporter induction [7]: Specific activation; also recorded: highly responsive
Srxn1-GFP reporter induction ([7]; listed as CdCl2): strong, concentration-dependent increase in expression of the GFP reporter
In vitro genotoxicity [4]: Pos.
Ames test (Salmonella): Pos.
mES DsRed reporters ([8]; Hendriks et al. 2011): Pos.

COc1cccc2c1C(=O)c1c(O)c3c(c(O)c1C2=O)C[C@@](O)(C(=O)CO)C[C@@H]3O[C@H]1C[C@H](N)[C@H](O)[C@H](C)O1 [Doxorubicin]
In vivo genotoxicity [1, 11]: Pos.
Bscl2-GFP/Srxn1-GFP Prim. toxic properties [2]: Genotoxin
GFP expression in Srxn1, Bscl2 and Btg2 GFP reporter cell lines [2]: increased
Srxn1-GFP reporter induction [3]: also induced by the genotoxic compounds, albeit to a lesser extent
In vitro genotoxicity [4]: Pos.
Ames test (Salmonella; [11]): Pos.
mES DsRed reporters ([8]; Hendriks et al. 2011): Pos.

CCOC(=O)/C=C\C(=O)OCC [Diethyl maleate]
Bscl2-GFP/Srxn1-GFP Prim. toxic properties [2]: Pro-oxidant
GFP expression in Srxn1, Bscl2 and Btg2 GFP reporter cell lines [2]: increased
Srxn1-GFP reporter induction (mRNA) [3]: highly induced
exposure time after which Srxn1-GFP expression reached a plateau ([7]; 100 uM DEM, live cell imaging): 24 h
exposure time after which Srxn1-GFP expression was clearly detectable ([7]; 100 uM DEM, live cell imaging): 8 h
mES DsRed reporters ([8]; Hendriks et al. 2011): Pos.
DsRed reporter expression/activation [9]: clear induction of DsRed expression

Cc1cccc(Nc2cc(Cl)nc(SCC(=O)O)n2)c1C [Wyeth-14,643]
DsRed reporter expression/activation [9]: did not induce any reporter activation

O=[As]O [Sodium arsenite]
In vivo genotoxicity [1, 11]: Pos.
Bscl2-GFP/Srxn1-GFP GFP Induction [2]: Pos. (considered positive when exposure to at least two different concentrations of a compound resulted in >1.5 fold induction of GFP expression)
Bscl2-GFP/Srxn1-GFP Prim. toxic properties [2, 12]: Pro-oxidant
Bscl2-GFP reporter induction ([6]; flow cytometry): hardly responded
Bscl2-GFP reporter induction ([6]; flow cytometry, listed as NaAsO2): not induced
Srxn1-GFP reporter induction [7]: Specific activation; also recorded: highly responsive
Srxn1-GFP reporter induction ([7]; listed as NaAsO2): strong, concentration-dependent increase in expression of the GFP reporter; also recorded: preferentially induced
In vitro genotoxicity [4]: Pos.
Ames test (Salmonella; [11]): Neg.
mES DsRed reporters ([8]; Hendriks et al. 2011): Pos.

COS(C)(=O)=O [MMS, methyl methanesulphonate]
In vivo genotoxicity ([1]; in vivo): Pos.
Bscl2-GFP/Srxn1-GFP GFP Induction [2]: Pos. (considered positive when exposure to at least two different concentrations of a compound resulted in >1.5 fold induction of GFP expression)
Bscl2-GFP/Srxn1-GFP Prim. toxic properties [2, 12]: Pro-oxidant
Ames test (Salmonella; [11]): Pos.
mES DsRed reporters [8]: Pos.
DsRed reporter expression/activation [9]: clear induction of DsRed expression

O=P1(N(CCCl)CCCl)NCCCO1 (stereo not shown) [cyclophosphamide]
survival of Bscl2-GFP reporter cells after S9-dependent activation [5]: reduced survival
Bscl2-GFP reporter induction with metabolic activation ([5]; mouse): induced expression of the Bscl2-GFP reporter only when incubated in the presence of rat S9 mix

O=c1cc(-c2cccc3c2Sc2ccccc2S3)oc(N2CCOCC2)c1 [ku55933]
effect on phosphorylation of Kap1, Chk1 and p53 in response to CisPt and Aph [10]: prevented phosphorylation of Kap1 and p53
effect on Bscl2-GFP reporter activation by CisPt or Aph ([6]; flow cytometry): unaffected

Mitomycin C
Bscl2-GFP/Srxn1-GFP GFP Induction [2]: Pos. (key: Pos.: considered positive when exposure to at least two different concentrations of a compound resulted in >1.5 fold induction of GFP expression)
Bscl2-GFP/Srxn1-GFP Prim. toxic properties [2]: Genotoxin
GFP expression in Srxn1, Bscl2 and Btg2 GFP reporter cell lines [2]: increased
Srxn1-GFP reporter induction [3]: also induced by the genotoxic compounds, albeit to a lesser extent

CC/C(=C(/CC)c1ccc(O)cc1)c1ccc(O)cc1 [diethylstilbestrol]
DsRed reporter expression/activation [9]: did not induce any reporter activation

CN[C@@H]1C[C@H]2O[C@@](C)([C@@H]1OC)n1c3ccccc3c3c4c(c5c6ccccc6n2c5c31)C(=O)N[C@@H]4O [UCN-01]
effect on Bscl2-GFP reporter activation by CisPt or Aph ([6]; flow cytometry): almost completely be repressed

C[C@@]1(CO)[C@H](O)CC[C@@]2(C)[C@H]1CC[C@H]1C[C@@H]3C[C@@]12CC[C@]3(O)CO [Aph, aphidicolin]
Bscl2-GFP reporter induction ([6]; flow cytometry): significant induction of GFP expression
Srxn1-GFP reporter induction [7]: slight reporter activation; also recorded: slightly activated

COc1cc2c(c(OC)c1OC)-c1c(cc3c(c1OC)OCO3)CC(C)C(C)C2 (stereo not shown) [schisandrin B]
effect on phosphorylation of Kap1, Chk1 and p53 in response to CisPt and Aph [10]: diminished Chk1 and p53 phosphorylation
effect on Bscl2-GFP reporter activation by CisPt or Aph ([6]; flow cytometry): almost completely be repressed

aflatoxin B1
Bscl2-GFP reporter induction with metabolic activation [6]: induced expression of the Bscl2-GFP reporter only when incubated in the presence of rat S9 mix

NC(=O)NO [HU, Hydroxyurea]
Bscl2-GFP reporter induction [5]: significant induction of GFP expression
Srxn1-GFP reporter induction [3]: slight reporter activation
